Test results reported in patent US12521440B2, “Degradation of bruton's tyrosine kinase (BTK) by conjugation of BTK inhibitors with E3 ligase ligand and methods of use” (BeOne Medicines I GmbH, priority 2021, dated 2026).
Where a name gives a salt, the structure may show the parent alone.

Experiments:
BTK = target: T1, BTK (Homo sapiens, UniProt Q06187); experiment: BTK degradation in TMD-8 cells (HTRF assay); assay type: cell-based; details: 6 h treatment, HTRF BTK degradation IC50 (DC50)
T1 construct: endogenous in cells; host or cells: TMD-8 cells
Description: TMD-8 cells were treated with compounds diluted in 0.2% DMSO, dilution was done according to the following protocol: (1) making 500×stock solution in DMSO from 1 mM by 6-fold dilution, total 8 doses were included; (2) making 2×solution in cell culture medium by transferring 0.5 μl 500×stock solution into 125 μl medium; (3) adding 15 μl of 2×solution to cells for incubation of 6 h.
After 6 h treatment, 10 μl 4×lysis buffer was added to each well; the plate was sealed and incubated for 30 min at room temperature on a plate shaker; Once the cells was lysed, 16 μL of cell lysate were transferred to a PE 384-well HTRF detection plate; 4 μL of pre-mixed HTRF antibodies were added to each well; the plate was covered with a plate sealer, and then spinned at 1000 rpm for 1 min, then incubated overnight at room temperature; the results were read on BMG PheraStar with HTRF protocol (337 nm-665 nm-620 nm).
(§1) The IC50 (DC50) value of a compound can be obtained by fitting the following equation Y=Bottom+(TOP−Bottom)/(1+((IC50/X)^hillslope)) wherein, X and Y are known values, and IC50, Hillslope, Top and Bottom are the parameters obtained by fitting with software. Y is the inhibition percentage (calculated from the equation), X is the concentration of the compound; IC50 is the concentration of the compound when the 50% inhibition is reached. The smaller the IC50 value is, the stronger the inhibitory ability of the compound is. Vice versa, the higher the IC50 value is, the weaker the ability the inhibitory ability of the compound is; Hillslope represents the slope of the fitted curve, generally around 1*; Bottom represents the minimum value of the curve obtained by data fitting, which is generally 0%±20%; Top represents the maximum value of the curve obtained by data fitting, which is generally 100%±20%. The experimental data were fitted by calculating and analyzing with Dotmatics data analysis software. HEK-293 Cell Treatment

HEK-293 cells = experiment: HEK-293 cytotoxicity detection (CellTiter-Glo); assay type: cell-based; details: Homo sapiens, 72 h incubation, read-out: HEK293
Description: as §1
HEK-293 cells were treated with compounds diluted in 0.2% DMSO, dilution was done according to the following protocol: (1) making 500×stock solution in DMSO from 5 mM by 4-fold dilution, total 8 doses were included; (2) making 2×solution in cell culture medium by transferring 0.5 ul 500×stock solution into 125 ul medium; (3) adding 50 ul of 2×solution to cells for incubation of 72 h.
25 μl of the CellTiter-Glo® Reagent [(Promega)—Cat No. G7572] was added to each well in the 96-well plate. The contents were mixed for 2 minutes on an orbital shaker to induce cell lysis. The plate was then allowed to incubate at room temperature for 10 minutes to stabilize luminescent signal. Luminescence was recorded on BMG PheraStar with luminescence protocol.
as §1, with “IC50” for “IC50 (DC50)”, “Wherein,” for “wherein,”, “software.” for “software. HEK-293 Cell Treatment”

T1 sequence (Q06187 whole entry): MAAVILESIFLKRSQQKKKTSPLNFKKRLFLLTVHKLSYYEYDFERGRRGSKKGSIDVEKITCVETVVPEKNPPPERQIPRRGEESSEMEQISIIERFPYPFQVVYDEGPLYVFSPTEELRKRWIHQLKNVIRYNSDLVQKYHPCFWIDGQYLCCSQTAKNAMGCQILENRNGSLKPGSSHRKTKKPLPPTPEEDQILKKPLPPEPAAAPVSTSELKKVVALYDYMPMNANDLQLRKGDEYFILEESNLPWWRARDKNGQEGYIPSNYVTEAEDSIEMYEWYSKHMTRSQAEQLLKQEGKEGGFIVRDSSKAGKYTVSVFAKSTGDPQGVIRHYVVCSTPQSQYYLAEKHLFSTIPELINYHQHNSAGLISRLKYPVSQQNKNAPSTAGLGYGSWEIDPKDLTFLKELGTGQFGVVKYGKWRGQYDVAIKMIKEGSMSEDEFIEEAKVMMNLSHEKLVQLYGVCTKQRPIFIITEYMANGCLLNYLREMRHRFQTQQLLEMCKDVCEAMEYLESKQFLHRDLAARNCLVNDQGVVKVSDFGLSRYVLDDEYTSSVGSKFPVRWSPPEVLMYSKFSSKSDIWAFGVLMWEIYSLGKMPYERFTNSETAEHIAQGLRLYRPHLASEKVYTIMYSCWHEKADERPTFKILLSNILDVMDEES

Compound	DC50 (BTK) [nM]	IC50 (HEK-293 cells) [nM]
Cc1cc(-c2cc(Nc3ncc(N4CCN(CC5CCN(c6ccc(N7CCC(=O)NC7=O)cc6)CC5)CC4)s3)ncn2)c(F)cc1[C@@H](C)NC(=O)c1nc(C(C)(C)C)no1 [Example 71, (R)-3-(tert-butyl)-N-(1-(4-(6-((5-(4-((1-(4-(2,4-dioxotetrahydropyrimidin-1(2H)-yl)phenyl)piperidin-4-yl)methyl)piperazin-1-yl)thiazol-2-yl)amino)pyrimidin-4-yl)-5-fluoro-2-methylphenyl)ethyl)-1,2,4-oxadiazole-5-carboxamide]	17.9	> 10000
Cc1cc(-c2cc(Nc3ccc(N4CCN(C[C@@H]5CCN(c6ccc(N7CCC(=O)NC7=O)cc6)C5)CC4)cn3)ncn2)ccc1[C@@H](C)NC(=O)c1nc(C(C)(C)C)no1 [Example 24, 3-(tert-butyl)-N—((R)-1-(4-(6-((5-(4-(((S)-1-(4-(2,4-dioxotetrahydropyrimidin-1(2H)-yl)phenyl)pyrrolidin-3-yl)methyl)piperazin-1-yl)pyridin-2-yl)amino)pyrimidin-4-yl)-2-methylphenyl)ethyl)-1,2,4-oxadiazole-5-carboxamide]	5.63	> 10000
Cc1cc(-c2cc(Nc3ccc(N4CCN(CC5CCN(c6ccc(N7CCC(=O)NC7=O)c(F)c6)CC5)CC4)cc3)ncn2)c(F)cc1[C@@H](C)NC(=O)c1nc(C(C)(C)C)no1 [Example 2, (R)-3-(tert-butyl)-N-(1-(4-(6-((4-(4-((1-(4-(2,4-dioxotetrahydropyrimidin-1(2H)-yl)-3-fluorophenyl)piperidin-4-yl)methyl)piperazin-1-yl)phenyl)amino)pyrimidin-4-yl)-5-fluoro-2-methylphenyl)ethyl)-1,2,4-oxadiazole-5-carboxamide]	236	> 10000
Cc1cc(-c2ncnc(Nc3ccc(N4CCN(CC5CCN(c6ccc(N7CCC(=O)NC7=O)cc6)CC5)CC4)cn3)c2F)ccc1[C@@H](C)NC(=O)c1nc(C(C)(C)C)no1 [Example 70, (R)-3-(tert-butyl)-N-(1-(4-(6-((5-(4-((1-(4-(2,4-dioxotetrahydropyrimidin-1(2H)-yl)phenyl)piperidin-4-yl)methyl)piperazin-1-yl)pyridin-2-yl)amino)-5-fluoropyrimidin-4-yl)-2-methylphenyl)ethyl)-1,2,4-oxadiazole-5-carboxamide]	> 2000	> 10000
Cc1cc(-c2cc(Nc3ccc(N4CCC5(CC4)CN(CC4CCN(c6ccc(N7CCC(=O)NC7=O)cc6)CC4)C5)cn3)ncn2)ccc1[C@@H](C)NC(=O)c1nc(C(C)(C)C)no1 [Example 32, (R)-3-(tert-butyl)-N-(1-(4-(6-((5-(2-((1-(4-(2,4-dioxotetrahydropyrimidin-1(2H)-yl)phenyl)piperidin-4-yl)methyl)-2,7-diazaspiro [3.5]nonan-7-yl)pyridin-2-yl)amino)pyrimidin-4-yl)-2-methylphenyl)ethyl)-1,2,4-oxadiazole-5-carboxamide]	1.73	1910
Cc1cc(-c2cc(Nc3ccc(N4CCN(CC5CCN(c6ccc(CN7CCC(=O)NC7=O)cc6)CC5)CC4)cn3)ncn2)ccc1[C@@H](C)NC(=O)c1nc(C(C)(C)C)no1 [Example 59, (R)-3-(tert-butyl)-N-(1-(4-(6-((5-(4-((1-(4-((2,4-dioxotetrahydropyrimidin-1(2H)-yl)methyl)phenyl)piperidin-4-yl)methyl)piperazin-1-yl)pyridin-2-yl)amino)pyrimidin-4-yl)-2-methylphenyl)ethyl)-1,2,4-oxadiazole-5-carboxamide]	10.2	> 10000
Cc1cc(-c2cc(Nc3ccc(N4CCN(CCc5cccc6c5oc(=O)n6C5CCC(=O)NC5=O)CC4)cn3)ncn2)ccc1[C@@H](C)NC(=O)c1nc(C(C)(C)C)no1 (stereo partly drawn) [Example 51, 3-(tert-butyl)-N-((1R)-1-(4-(6-((5-(4-(2-(3-(2,6-dioxopiperidin-3-yl)-2-oxo-2,3-dihydrobenzo[d]oxazol-7-yl)ethyl)piperazin-1-yl)pyridin-2-yl)amino)pyrimidin-4-yl)-2-methylphenyl)ethyl)-1,2,4-oxadiazole-5-carboxamide formate]	1.35	> 10000
Cc1cc(-c2cc(Nc3ccc(N4CCN(C5CN(C6CN(c7ccc8c(c7)C(=O)N(C7CCC(=O)NC7=O)C8=O)C6)C5)CC4)cn3)ncn2)ccc1[C@@H](C)NC(=O)c1nc(C(C)(C)C)no1 (stereo partly drawn) [Example 44, 3-(tert-butyl)-N-((1R)-1-(4-(6-((5-(4-(1′-(2-(2,6-dioxopiperidin-3-yl)-1,3-dioxoisoindolin-5-yl)-[1,3′-biazetidin]-3-yl)piperazin-1-yl)pyridin-2-yl)amino)pyrimidin-4-yl)-2-methylphenyl)ethyl)-1,2,4-oxadiazole-5-carboxamide]	1.63	> 10000
Cc1cc(-c2cc(Nc3ccc(N4CCN([C@H]5C[C@H](c6ccc(N[C@H]7CCC(=O)NC7=O)cc6)C5)CC4)cn3)ncn2)ccc1[C@@H](C)NC(=O)c1nc(C(C)(C)C)no1 [Example 53, 3-(tert-butyl)-N—((R)-1-(4-(6-((5-(4-((1S,3r)-3-(4-(((S)-2,6-dioxopiperidin-3-yl)amino)phenyl)cyclobutyl)piperazin-1-yl)pyridin-2-yl)amino)pyrimidin-4-yl)-2-methylphenyl)ethyl)-1,2,4-oxadiazole-5-carboxamide formate]	1.91	> 10000
Cc1c([C@@H](C)NC(=O)c2nc(C(C)(C)C)no2)ccc(-c2cc(Nc3ccc(N4CCN(CC5CCN(c6ccc(N7CCC(=O)NC7=O)cc6)CC5)CC4)cn3)ncn2)c1F [Example 9, (R)-3-(tert-butyl)-N-(1-(4-(6-((5-(4-((1-(4-(2,4-dioxotetrahydropyrimidin-1(2H)-yl)phenyl)piperidin-4-yl)methyl)piperazin-1-yl)pyridin-2-yl)amino)pyrimidin-4-yl)-3-fluoro-2-methylphenyl)ethyl)-1,2,4-oxadiazole-5-carboxamide]	138	> 10000
Cc1cc(-c2cc(Nc3ccc(N4CCN(CC5CCN(c6ccc(N7CCC(=O)NC7=O)cc6)CC5)CC4)nc3)ncn2)ccc1[C@@H](C)NC(=O)c1nc(C2(C)CC2)no1 [Example 10, (R)—N-(1-(4-(6-((6-(4-((1-(4-(2,4-dioxotetrahydropyrimidin-1(2H)-yl)phenyl)piperidin-4-yl)methyl)piperazin-1-yl)pyridin-3-yl)amino)pyrimidin-4-yl)-2-methylphenyl)ethyl)-3-(1-methylcyclopropyl)-1,2,4-oxadiazole-5-carboxamide]	89.5	> 10000
Cc1cc(-c2cc(Nc3nnc(N4CCN(CC5CCN(c6ccc(N7CCC(=O)NC7=O)cc6)CC5)CC4)s3)ncn2)ccc1[C@@H](C)NC(=O)c1nc(C(C)(C)C)no1 [Example 72, (R)-3-(tert-butyl)-N-(1-(4-(6-((5-(4-((1-(4-(2,4-dioxotetrahydropyrimidin-1(2H)-yl)phenyl)piperidin-4-yl)methyl)piperazin-1-yl)-1,3,4-thiadiazol-2-yl)amino)pyrimidin-4-yl)-2-methylphenyl)ethyl)-1,2,4-oxadiazole-5-carboxamide]	11.2	1910
